Experimental data as given in ChEMBL document CHEMBL1201862, “PubChem BioAssay data set” (2004).
The source made the active and inactive calls.

Legend:
[1] = biological target: Cytochrome P450 2C19 (Homo sapiens, UniProt P33261); test: Cytochrome panel assay with activity outcomes. Panel member name: p450-cyp2c19 Compounds with AC50 equal or less than 10 uM are considered active; format: functional
[2] = system: Streptococcus; test: GAS UMAA2166 growth inhibition – luminescence, BacTiterGlo, counter-screen for streptokinase expression inhibitor project, dose response (AID 1915); format: functional, organism-based;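 further: potency for reduction of bacterial viability or growth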
[3] = system: Streptococcus sp. 'group A'; test: Streptococcus pyogenes SK(-)GAS viability under kanamycin – luminescence, BacTiterGlo, confirmation, counter-screen for streptokinase expression inhibitor project, dose response (AID 1900); format: functional, organism-based
[4] = biological target: T1, Streptokinase A (Streptococcus pyogenes serotype M1, UniProt P10520); test: viability-normalized secreted streptokinase activity reduction – plasminogen activation absorbance, OD405, dose response (AID 1914); format: functional, Streptococcus pyogenes M1 GAS;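 further: secreted streptokinase activity via plasminogen activation per viability signal from cell pellet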
T1 sequence (P10520 whole entry): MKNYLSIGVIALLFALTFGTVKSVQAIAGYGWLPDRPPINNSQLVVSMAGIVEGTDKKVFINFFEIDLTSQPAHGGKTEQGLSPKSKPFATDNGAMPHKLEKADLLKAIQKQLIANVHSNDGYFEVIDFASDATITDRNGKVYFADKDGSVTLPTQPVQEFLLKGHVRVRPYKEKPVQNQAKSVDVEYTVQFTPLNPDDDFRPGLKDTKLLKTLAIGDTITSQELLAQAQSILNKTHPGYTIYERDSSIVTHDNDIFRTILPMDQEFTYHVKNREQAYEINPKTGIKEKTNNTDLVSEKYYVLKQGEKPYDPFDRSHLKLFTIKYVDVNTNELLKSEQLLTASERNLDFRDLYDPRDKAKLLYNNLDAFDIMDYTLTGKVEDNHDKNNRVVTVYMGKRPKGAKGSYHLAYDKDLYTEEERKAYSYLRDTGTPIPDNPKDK

[5] = viability of uninfected HEp-2 cells – cell-based, HTS, cytotoxicity control for RSV inhibitor project, dose response (AID 2410); format: functional; details: human respiratory syncytial virus
[6] = Trypanosoma cruzi growth suppression in host cells – NIH3T3 host cells, beta-gal luminescence, confirmation (AID 2044); format: functional, cell-based;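 further: intracellular parasites grown in NIH/3T3 mouse fibroblasts as host cells; luminescent beta-galactosidase reporter signal from transgenic T. cruzi replicating inside host cells; inhibitors lower the luminescence signal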
[7] = NIH3T3 cell viability loss – ATP luminescence, mouse fibroblasts, counter-screen, dose response (AID 2010); format: functional, cell-based;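 further: cells exposed to compound for about 90 hours before reading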
[8] = biological target: Cytochrome P450 3A4 (Homo sapiens, UniProt P08684);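 further: CYP3A4 tested as one member of a cytochrome P450 panel screen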
[9] = biological target: Cytochrome P450 2C9 (Homo sapiens, UniProt P11712)
Chain of Cytochrome P450 2C9 (P11712 whole entry): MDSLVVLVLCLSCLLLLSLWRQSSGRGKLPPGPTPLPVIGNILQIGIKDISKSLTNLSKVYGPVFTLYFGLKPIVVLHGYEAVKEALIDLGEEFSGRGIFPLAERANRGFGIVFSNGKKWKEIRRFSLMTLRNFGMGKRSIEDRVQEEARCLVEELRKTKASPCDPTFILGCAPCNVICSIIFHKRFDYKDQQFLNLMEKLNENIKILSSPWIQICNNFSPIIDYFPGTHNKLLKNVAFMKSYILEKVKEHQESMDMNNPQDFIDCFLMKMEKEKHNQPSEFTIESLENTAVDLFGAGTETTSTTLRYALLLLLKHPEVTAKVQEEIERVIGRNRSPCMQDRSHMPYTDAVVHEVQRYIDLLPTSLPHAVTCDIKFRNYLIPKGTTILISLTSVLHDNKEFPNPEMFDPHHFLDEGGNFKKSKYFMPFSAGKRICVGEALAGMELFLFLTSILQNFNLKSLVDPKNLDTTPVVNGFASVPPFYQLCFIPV

Chain of Cytochrome P450 2C19 (P33261 whole entry): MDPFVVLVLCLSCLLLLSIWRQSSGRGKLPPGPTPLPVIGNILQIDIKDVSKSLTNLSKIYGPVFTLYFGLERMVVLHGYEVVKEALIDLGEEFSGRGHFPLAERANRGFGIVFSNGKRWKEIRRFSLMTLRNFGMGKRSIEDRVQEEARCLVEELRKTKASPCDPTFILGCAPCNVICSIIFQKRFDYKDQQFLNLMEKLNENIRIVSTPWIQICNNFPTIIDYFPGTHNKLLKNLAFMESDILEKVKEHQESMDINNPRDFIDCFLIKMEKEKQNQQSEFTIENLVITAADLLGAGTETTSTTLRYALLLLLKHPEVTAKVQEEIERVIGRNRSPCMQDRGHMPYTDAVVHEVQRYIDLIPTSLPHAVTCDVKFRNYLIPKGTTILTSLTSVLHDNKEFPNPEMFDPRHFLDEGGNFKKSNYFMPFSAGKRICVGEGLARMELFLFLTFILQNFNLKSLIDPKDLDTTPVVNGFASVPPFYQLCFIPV
Chain of Cytochrome P450 3A4 (P08684 whole entry): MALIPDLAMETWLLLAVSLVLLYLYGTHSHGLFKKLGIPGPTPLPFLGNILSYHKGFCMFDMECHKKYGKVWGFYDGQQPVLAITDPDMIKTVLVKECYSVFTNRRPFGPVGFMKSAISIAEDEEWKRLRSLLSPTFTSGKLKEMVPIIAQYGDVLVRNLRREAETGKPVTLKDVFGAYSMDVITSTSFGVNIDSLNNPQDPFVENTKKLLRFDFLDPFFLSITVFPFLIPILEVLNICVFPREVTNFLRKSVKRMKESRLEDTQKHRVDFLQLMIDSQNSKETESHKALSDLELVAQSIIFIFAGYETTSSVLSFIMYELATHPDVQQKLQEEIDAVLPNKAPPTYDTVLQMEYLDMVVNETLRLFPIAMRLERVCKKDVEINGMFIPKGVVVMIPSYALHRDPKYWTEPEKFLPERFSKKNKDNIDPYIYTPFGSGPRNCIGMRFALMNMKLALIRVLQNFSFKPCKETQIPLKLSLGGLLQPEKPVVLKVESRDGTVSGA

Compound: O=C(C(Cc1ccccc1)N1C(=O)C2C3CCC(C3)C2C1=O)N1CCCCC1 (configuration not stated)
- AC50 ([1]; read-out: AC50): 7.08 µM (inconclusive)

Compound: O=C(N[C@H](CO)[C@H](O)c1ccc([N+](=O)[O-])cc1)C(Cl)Cl [CHLORAMPHENICOL]
- EC50 [2]: 2.55 µM (active)
- EC50 [3]: 1.84 µM (active)

Compound: Cc1cnn(-c2nc(-c3ccccc3)cc(-c3ccccc3)n2)c1
- EC50 [2]: > 150 µM (not active)
- EC50 [4]: 27.2 µM (active)
- EC50 [3]: 9.49 µM (active)

Compound: O=C(Cn1ccc(C(F)(F)F)n1)N=Nc1c(O)[nH]c2ccc(Br)cc12
- CC50 [5]: > 50 µM (active)

Compound: CCc1c(C)nc(N)n2c(SCC(=O)Nc3ccccc3)nnc12
- AC50 ([1]; read-out: AC50): 22.4 µM (inconclusive)

Compound: CCC(C(=O)NC(C)CCc1ccccc1)n1nc(C)n2c(cc3occc32)c1=O (configuration not stated)
- CC50 [5]: 39.2 µM (active)

Compound: CN(C)CCCNc1ncc(C(F)(F)F)cc1Cl
- EC50 [6]: 0.659 µM (active)
- EC50 [7]: > 30 µM (not active)

Compound: Cn1c(=O)c2[nH]c(-c3ccc(S(=O)(=O)O)cc3)nc2n(C)c1=O
- AC50 [1]: inconclusive

Compound: Cc1ccc(C2c3c(C)nn(-c4ccc([N+](=O)[O-])cc4)c3N=C3C(=O)Nc4ccccc4N32)cc1 (configuration not stated)
- EC50 [6]: 1.45 µM (active)
- EC50 [7]: > 60 µM (not active)

Compound: O=C(Nc1nc(-c2ccccn2)cs1)C1CC1
- EC50 [2]: > 150 µM (not active)
- EC50 [4]: > 150 µM (not active)
- EC50 [3]: > 150 µM (not active)

Compound: Cc1cc(N2CCOCC2)nc2ccc(NC(=O)CCC(=O)N3CCN(c4ccc(F)cc4)CC3)cc12
- CC50 [5]: > 12.5 µM (active)

Compound: NC(=S)N/N=C\c1c(OCc2ccccc2Cl)ccc2ccccc12
- EC50 [2]: > 150 µM (not active)
- EC50 [4]: > 150 µM (not active)
- EC50 [3]: 2.39 µM (active)

Compound: O=C(c1ccccc1Cl)N1CCN(S(=O)(=O)c2cccs2)CC1
- EC50 [2]: > 150 µM (not active)
- EC50 [4]: > 150 µM (not active)
- EC50 [3]: > 150 µM (not active)

Compound: C=CCNC(=O)O/N=C/c1csc([N+](=O)[O-])c1
- EC50 [6]: 1.93 µM (active)
- EC50 [7]: > 60 µM (not active)

Compound: Cc1ccc2nc(O)c(COC(=O)C3CCCCC3)cc2c1
- CC50 [5]: > 50 µM (active)

Compound: Cc1cccc(CSc2ncnc3c2cnn3Cc2ccccc2)c1
- EC50 [2]: > 150 µM (not active)
- EC50 [4]: > 150 µM (not active)
- EC50 [3]: 23 µM (active)

Compound: O=C(Nc1cccc(-c2csc(Nc3ccc(Cl)cc3)n2)c1)c1ccccc1
- CC50 [5]: 10.3 µM (active)
- EC50 [2]: 5.66 µM (active)
- EC50 [4]: > 150 µM (not active)
- EC50 [3]: 4.01 µM (active)

Compound: CN1CCC(OC(=O)c2ccccc2Cl)CC1
- EC50 [6]: 0.178 µM (active)
- EC50 [7]: 10.5 µM (active)

Compound: COCCn1c(=O)c(C)nc2cnc(OC)nc21
- AC50 [8]: 31.6 µM (inconclusive)

Compound: COc1ncc2nc(-c3cn(C)c4ccccc34)c(=O)n(Cc3ccc(F)cc3)c2n1
- AC50 ([1]; read-out: AC50): 15.8 µM (inconclusive)

Compound: Cc1ccc2nc(O)c(CN(CCCN(C)C)C(S)=NCCc3ccccc3)cc2c1
- EC50 [6]: 0.409 µM (active)
- EC50 [7]: > 60 µM (not active)

Compound: CC1N(C)c2cc(NC(=O)c3ccco3)c(P(=O)(Nc3ccc([N+](=O)[O-])cc3)N3CCOCC3)cc2C1(C)C (configuration not stated)
- CC50 [5]: 18 µM (active)

Compound: O=C(CCCN1C(=O)/C(=C\c2cccs2)SC1=S)Nc1cc([N+](=O)[O-])ccc1O
- EC50 [2]: > 150 µM (not active)
- EC50 [4]: 25.3 µM (active)
- EC50 [3]: 4.29 µM (active)

Compound: Cc1c(C(O)CN2CCN(Cc3ccc4c(c3)OCO4)CC2)c2ccccc2n1C (configuration not stated)
- EC50 [6]: 2.47 µM (active)
- EC50 [7]: > 60 µM (not active)

Compound: C/C(CCC(=O)OC[C@@H]1O[C@H](C#Cc2ccccc2)C=C[C@@H]1Oc1ccc(C)cc1)=N/O[C@@H](C)CN1CCCCc2nc(C)c(C)cc21
- AC50 ([1]; read-out: AC50): 1.26 µM (inconclusive)

Compound: O=C(/C=C/c1cc[n+](CC(=O)c2ccc3cccc4c3c2CC4)cc1)c1ccc2cccc3c2c1CC3
- EC50 [6]: 0.146 µM (active)
- EC50 [7]: > 60 µM (not active)

Compound: COc1ccc(Oc2nc(C(F)(F)F)nc3ccccc23)cc1
- EC50 [2]: > 150 µM (not active)
- EC50 [4]: 46.8 µM (active)
- EC50 [3]: 29.1 µM (active)

Compound: COC(=O)[C@@H]1CC[C@H](C)[C@@H](c2ccc(C)cc2)N1C(=O)c1ccc(/C=N/O[C@@H](C)c2cn([C@H](CO)Cc3ccccc3)nn2)cc1
- EC50 [6]: 0.891 µM (active)
- EC50 [7]: > 60 µM (inconclusive)

Compound: Sc1nnc(-c2cccs2)n1/N=C/c1cn(-c2ccccc2)nc1-c1ccccc1
- EC50 [2]: 71.7 µM (active)
- EC50 [4]: > 150 µM (not active)
- EC50 [3]: 6.85 µM (active)

Compound: FC(F)Sc1ccc(NC(S)=NC(c2ccccc2)c2ccccc2)cc1
- EC50 [2]: 3.15 µM (active)
- EC50 [3]: 2.4 µM (active)

Compound: Cc1ccc(OC(=O)c2cccc(C(=O)Oc3ccc(C)cc3)n2)cc1
- AC50 [1]: inconclusive

Compound: CCN(CC)CCN(C)C(=O)CCc1nnc(-c2ccc(C)s2)o1
- EC50 [6]: 1.35 µM (active)
- EC50 [7]: > 60 µM (not active)

Compound: C=CCn1c(SCc2cc(=O)n3ccsc3n2)nc2scc(C3CC3)c2c1=O
- CC50 [5]: 33.1 µM (active)

Compound: O=S(=O)(Nc1cccc2c1CCCC2)c1ccc(Cl)cc1
- EC50 [2]: > 150 µM (not active)
- EC50 [4]: 97.8 µM (inconclusive)
- EC50 [3]: 4.86 µM (active)

Compound: O=C(CCC(=O)Nc1ccccc1)NNC(=O)c1cccs1
- AC50 [9]: 31.6 µM (inconclusive)
- AC50 ([1]; read-out: AC50): 39.8 µM (inconclusive)

Compound: CCn1c(SCC(=O)OC)nnc1C1CCCCC1
- AC50 ([1]; read-out: AC50): 14.1 µM (inconclusive)

Compound: Cn1c[n+](C)cc1/C=N/O
- AC50 ([1]; read-out: AC50): 8.91 µM (inconclusive)

Compound: CC(=O)c1coc2c1cc(O)c1ccccc12
- CC50 [5]: > 50 µM (active)

Compound: CC(C)NCC(O)COCCOc1ccc(Br)cc1 (configuration not stated)
- EC50 [6]: 1.1 µM (active)
- EC50 [7]: > 30 µM (not active)

Compound: CN1C(C(=O)Nc2ccccn2)=C(O)c2sccc2S1(=O)=O [TENOXICAM]
- AC50 [9]: 2.51 µM (inconclusive)

Compound: Fc1ccc(N2CCN(C3=Nc4cccc5cccc3c45)CC2)cc1
- EC50 [6]: 1.74 µM (active)
- EC50 [7]: > 30 µM (not active)

Compound: O=C(c1ccco1)N1CCC[C@@]2(CCN(C(c3ccccc3)c3ccccc3)C2)C1
- AC50 [9]: 31.6 µM (inconclusive)

Compound: O=C(NCC1CCCO1)c1cc2c3ccccc3nc-2c(-c2cccc(Cl)c2)[nH]1 (configuration not stated)
- EC50 [2]: 25.3 µM (active)
- EC50 [4]: > 150 µM (not active)
- EC50 [3]: 4.12 µM (active)

Compound: CCN1C(=O)N[C@@H](CCc2ccccc2)C(C(=O)OC)=C1C
- CC50 [5]: 29.9 µM (active)

Compound: C=CCCN(C1CCCC1)S(=O)(=O)c1ccccc1Br
- CC50 [5]: > 50 µM (active)

Compound: CCn1cc(CN2CCCC(C(=O)c3ccc(-c4ccccc4)cc3)C2)cn1 (configuration not stated)
- EC50 [6]: 0.222 µM (active)
- EC50 [7]: 16.7 µM (active)

Compound: Cc1ccc(Cn2cccc(NC(=O)NCc3ccccc3)c2=O)cc1
- AC50 [9]: 14.1 µM (inconclusive)
- AC50 ([1]; read-out: AC50): 5.01 µM (inconclusive)

Compound: COc1cccc(-c2nc(NC3CC3)c3ccccc3n2)c1
- AC50 ([1]; read-out: AC50): 10 µM (inconclusive)

Compound: CCN1CCN(S(=O)(=O)c2ccc(Cl)c(C(=O)Nc3nnc(CC(C)C)s3)c2)CC1
- AC50 [9]: 25.1 µM (inconclusive)
- AC50 ([1]; read-out: AC50): 39.8 µM (inconclusive)

Compound: FC(F)(F)c1ccccc1/C=N/n1c(S)nnc1COc1ccccc1
- CC50 [5]: 32.1 µM (active)

Compound: CCOC(=O)c1c(C)[nH]c(C(=O)COC(=O)c2cc(C)oc2C)c1C
- CC50 [5]: > 50 µM (active)

Compound: CCCCCSc1nc2c(c(=O)[nH]c(=O)n2C)n1C
- CC50 [5]: > 50 µM (active)

Compound: CCOCCCN=C(S)NCCNc1nc2c(C)cccc2cc1C#N
- EC50 [6]: 2.73 µM (active)
- EC50 [7]: > 60 µM (not active)

Compound: CCC1CCCCN1c1nc2c(C=O)c(C)nn2c2ccccc12 (configuration not stated)
- CC50 [5]: 20.5 µM (active)

Compound: O=C1NC(=O)N(CCc2ccccc2)C(=O)/C1=C(O)/C=C/c1c[nH]c2ccccc12
- EC50 [2]: 5.6 µM (active)
- EC50 [4]: > 150 µM (not active)
- EC50 [3]: 5.47 µM (active)

Compound: CN(CCOc1ccccc1)C(=O)c1cc([N+](=O)[O-])cc([N+](=O)[O-])c1
- EC50 [6]: 0.7 µM (active)
- EC50 [7]: > 30 µM (not active)

Compound: CCC/C=C(\CCC)C(NS(=O)(=O)CC12CCC(CC1=O)C2(C)C)c1ccc(C(=O)OC)cc1 (configuration not stated)
- AC50 ([1]; read-out: AC50): 25.1 µM (inconclusive)

Compound: CCc1nc2ccccc2nc1O
- CC50 [5]: 28.8 µM (active)

Compound: COc1ccc(Oc2ncc3nc(C)c(=O)n(C[C@H]4CCCO4)c3n2)cc1
- AC50 [9]: 39.8 µM (inconclusive)
- AC50 ([1]; read-out: AC50): 25.1 µM (inconclusive)

Compound: CC1=C(C#N)C(NC(=O)C2CCCCC2)(C(F)(F)F)C(=O)N1 (configuration not stated)
- AC50 [9]: 7.94 µM (inconclusive)
- AC50 ([1]; read-out: AC50): 28.2 µM (inconclusive)

Compound: COc1ccc(C2(C)NC(=O)N(CC(=O)Nc3ccc(-c4nc5ccc(C)cc5s4)cc3)C2=O)cc1 (configuration not stated)
- CC50 [5]: 29.8 µM (active)

Compound: CN(C(=S)NC(=O)c1ccccc1)C1CCCCC1
- EC50 [2]: > 150 µM (not active)
- EC50 [4]: > 150 µM (not active)
- EC50 [3]: > 150 µM (not active)

Compound: COc1ccc(CCNC=C2C(=O)CC(C)(C)CC2=O)cc1
- AC50 [9]: 12.6 µM (inconclusive)
- AC50 ([1]; read-out: AC50): 28.2 µM (inconclusive)
